Structures can show the parent of a compound that is named as a salt.
System: clot lysis (fibrinolysis) in diluted human citrated plasma, tPA-induced
Assay: Plasma-based clot lysis assay (5%)
Assay type: biochemical
Conditions: human citrated platelet-poor plasma 5%, fibrinogen 3 μM, CaCl2 10 mM, tPA 0.2 nM, 37° C., OD at 405 nm
How it was run: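 Compounds added to 5% platelet-poor citrated human plasma with 3 μM fibrinogen in 20 mM HEPES, 150 mM NaCl, 0.01% Brij, pH 7. Clotting and lysis started with 10 mM CaCl2 and 0.2 nM tPA at 37° C. IC50 derived by comparing time courses with a blank control reaction.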

Structure (SMILES) | IC50
CCc1csc(-c2cnn3c(C4CCNCC4)cc(=O)[nH]c23)n1 [Example 308, 3-(4-ethyl-1,3-thiazol-2-yl)-7-(piperidin-4-yl)pyrazolo[1,5-a]pyrimidin-5(4H)-one hydrochloride] | 11 nM
O=c1cc(C2CCNCC2)n2ncc(-c3nnc(-c4ccccc4F)o3)c2[nH]1 [Example 186, 3-[5-(2-fluorophenyl)-1,3,4-oxadiazol-2-yl]-7-(piperidin-4-yl)pyrazolo[1,5-a]pyrimidin-5(4H)-one hydrochloride] | 34 nM
O=c1cc(C2CCNCC2)n2ncc(S(=O)(=O)c3ccc(Cl)cc3Cl)c2[nH]1 [Example 74, 3-[(2,4-Dichlorophenyl)sulfonyl]-7-(piperidin-4-yl)pyrazolo[1,5-a]pyrimidin-5(4H)-one hydrochloride] | 18 nM
Cc1nc(-c2ccc(C(F)(F)F)cc2)sc1-c1cnn2c(C3CCNCC3)cc(=O)[nH]c12 [Example 369, 3-{4-methyl-2-[4-(trifluoromethyl)phenyl]-1,3-thiazol-5-yl}-7-(piperidin-4-yl)pyrazolo[1,5-a]pyrimidin-5(4H)-one hydrochloride] | 39 nM
CS(=O)(=O)c1ccc(-c2cnn3c(C4CCNCC4)cc(=O)[nH]c23)cc1 [Example 55, 3-[4-(Methylsulfonyl)phenyl]-7-(piperidin-4-yl)pyrazolo[1,5-a]pyrimidin-5(4H)-one hydrochloride] | 19 nM
O=c1cc(C2CCNCC2)n2ncc(-c3noc(-c4ccc(C(F)(F)F)cc4)n3)c2[nH]1 [Example 231, 7-(piperidin-4-yl)-3-{5-[4-(trifluoromethyl)phenyl]-1,2,4-oxadiazol-3-yl}pyrazolo[1,5-a]pyrimidin-5(4H)-one hydrochloride] | 34 nM
O=c1cc(C2CCNCC2)n2ncc(-c3nc(-c4cc(Cl)ccc4C(F)(F)F)no3)c2[nH]1 [Example 145, 3-{3-[5-Chloro-2-(trifluoromethyl)phenyl]-1,2,4-oxadiazol-5-yl}-7-(piperidin-4-yl)pyrazolo[1,5-a]pyrimidin-5(4H)-one hydrochloride] | 28 nM
O=c1cc(C2CCNCC2)n2ncc(-c3nc(-c4ccc(C(F)(F)F)cc4Cl)no3)c2[nH]1 [Example 136, 3-{3-[2-Chloro-4-(trifluoromethyl)phenyl]-1,2,4-oxadiazol-5-yl}-7-(piperidin-4-yl)pyrazolo[1,5-a]pyrimidin-5(4H)-one hydrochloride] | 43 nM
O=c1cc(C2CCNCC2)n2ncc(-c3nc(-c4ccc(OC(F)(F)F)c(Cl)c4)no3)c2[nH]1 [Example 149, 3-{3-[3-Chloro-4-(trifluoromethoxy)phenyl]-1,2,4-oxadiazol-5-yl}-7-(piperidin-4-yl)pyrazolo[1,5-a]pyrimidin-5(4H)-one hydrochloride] | 100 nM
O=c1cc(C2CCNCC2)n2nc(C(F)(F)F)cc2[nH]1 [Example 24, 7-(Piperidin-4-yl)-2-(trifluoromethyl)pyrazolo[1,5-a]pyrimidin-5(4H)-one hydrochloride] | 59 nM
CC(C)Cc1nc(-c2cnn3c(C4CCNCC4)cc(=O)[nH]c23)no1 [Example 378, 3-(5-Isobutyl-1,2,4-oxadiazol-3-yl)-7-(piperidin-4-yl)pyrazolo[1,5-a]pyrimidin-5(4H)-one hydrochloride] | 32 nM
COC(=O)c1c(C(F)(F)F)nn2c(C3CCNCC3)cc(=O)[nH]c12 [Example 454, Methyl 5-oxo-7-(piperidin-4-yl)-2-(trifluoromethyl)-4,5-dihydropyrazolo[1,5-a]pyrimidine-3-carboxylate hydrochloride] | 34 nM
Cc1nn2c(C3CCNCC3)cc(=O)[nH]c2c1-c1nnc(C(C)(C)C)o1 [Example 338, 3-(5-tert-butyl-1,3,4-oxadiazol-2-yl)-2-methyl-7-(piperidin-4-yl)pyrazolo[1,5-a]pyrimidin-5(4H)-one hydrochloride] | 11 nM
Cc1ccc(-c2noc(-c3c(C)nn4c(C5CCNCC5)cc(=O)[nH]c34)n2)cc1 [Example 306, 2-methyl-3-[3-(4-methylphenyl)-1,2,4-oxadiazol-5-yl]-7-(piperidin-4-yl)pyrazolo[1,5-a]pyrimidin-5(4H)-one hydrochloride] | 11 nM
Cc1nn2c(C3CCNCC3)cc(=O)[nH]c2c1C(=O)N(C)C1CCC1 [Example 401, N-cyclobutyl-N,2-dimethyl-5-oxo-7-(piperidin-4-yl)-4,5-dihydro-pyrazolo[1,5-a] pyrimidine-3-carboxamide hydrochloride] | 34 nM
Cc1nn2c(C3CCNCC3)cc(=O)[nH]c2c1C(=O)N1CCOC(C)(C)C1 [Example 426, 3-[(2,2-dimethyl-morpholin-4-yl)carbonyl]-2-methyl-7-(piperidin-4-yl) pyrazolo[1,5-a] pyrimidin-5(4H)-one hydrochloride] | 56 nM

Structure (SMILES) | IC50
O=c1cc(C2CCNCC2)n2ncc(-c3cccnc3)c2[nH]1 [Example 5, 7-(Piperidin-4-yl)-3-(pyridin-3-yl)pyrazolo[1,5-a]pyrimidin-5 (4H)-one hydrochloride] | 32 nM
O=c1cc(C2CCNCC2)n2ncc(-c3nnc(-c4ccncc4)o3)c2[nH]1 [Example 185, 7-(piperidin-4-yl)-3-[5-(pyridin-4-yl)-1,3,4-oxadiazol-2-yl]pyrazolo[1,5-a]pyrimidin-5 (4H)-one hydrochloride] | 38 nM
O=C(NC1(Cc2ccccc2)CC1)c1cnn2c(C3CCNCC3)cc(=O)[nH]c12 [Example 94, N-(1-benzylcyclopropyl)-5-oxo-7-(piperidin-4-yl)-4,5-dihydropyrazolo[1,5-a]pyrimidine-3-carboxamide hydrochloride] | 30 nM
O=C(O)c1cnn2c(C3CCNCC3)cc(=O)[nH]c12 [Example 17, 5-Oxo-7-(piperidin-4-yl)-4,5-dihydropyrazolo[1,5-a]pyrimidine-3-carboxylic acid hydrochloride] | 46 nM
COc1ccccc1Cc1nnc(-c2cnn3c(C4CCNCC4)cc(=O)[nH]c23)o1 [Example 280, 3-[5-(2-methoxybenzyl)-1,3,4-oxadiazol-2-yl]-7-(piperidin-4-yl)pyrazolo[1,5-a]pyrimidin-5(4H)-one hydrochloride] | 29 nM
Cc1ccccc1-c1noc(-c2c(C)nn3c(C4CCNCC4)cc(=O)[nH]c23)n1 [Example 440, 2-methyl-3-[3-(2-methylphenyl)-1,2,4-oxadiazol-5-yl]-7-(piperidin-4-yl)pyrazolo[1,5-a]pyrimidin-5(4H)-one hydrochloride] | 23 nM
CCc1noc(-c2cnn3c(C4CCNCC4)cc(=O)[nH]c23)n1 [Example 107, 3-(3-ethyl-1,2,4-oxadiazol-5-yl)-7-(piperidin-4-yl)pyrazolo[1,5-a]pyrimidin-5(4H)-one] | 49 nM
O=C(c1cnn2c(C3CCNCC3)cc(=O)[nH]c12)C1CC1 [Example 453, 3-(cyclopropylcarbonyl)-7-(piperidin-4-yl)pyrazolo[1,5-a]pyrimidin-5(4H)-one hydrochloride] | 8 nM
Cc1ccc(Cl)cc1-c1nc(-c2cnn3c(C4CCNCC4)cc(=O)[nH]c23)no1 [Example 230, 3-[5-(5-chloro-2-methylphenyl)-1,2,4-oxadiazol-3-yl]-7-(piperidin-4-yl)pyrazolo[1,5-a]pyrimidin-5(4H)-one hydrochloride] | 36 nM
O=C(OCCC(F)(F)F)c1cnn2c(C3CCNCC3)cc(=O)[nH]c12 [Example 355, 3,3,3-trifluoropropyl 5-oxo-7-(piperidin-4-yl)-4,5-dihydropyrazolo[1,5-a]pyrimidine-3-carboxylate hydrochloride] | 27 nM
CN1CCC(Cc2noc(-c3cnn4c(C5CCNCC5)cc(=O)[nH]c34)n2)CC1 [Example 203, 3-{3-[(1-methylpiperidin-4-yl)methyl]-1,2,4-oxadiazol-5-yl}-7-(piperidin-4-yl)pyrazolo[1,5-a]pyrimidin-5(4H)-one hydrochloride] | 34 nM
O=c1cc(C2CCNCC2)n2ncc(-c3nc(-c4ccc(C(F)(F)F)nc4)no3)c2[nH]1 [Example 188, 7-(piperidin-4-yl)-3-{3-[6-(trifluoromethyl)pyridin-3-yl]-1,2,4-oxadiazol-5-yl}pyrazolo[1,5-a]pyrimidin-5(4H)-one hydrochloride] | 35 nM
N#Cc1cccc(-c2cnn3c(C4CCNCC4)cc(=O)[nH]c23)c1 [Example 50, 3-[5-Oxo-7-(piperidin-4-yl)-4,5-dihydropyrazolo[1,5-a]pyrimidin-3-yl]benzonitrile trifluoroacetate] | 24 nM
Cc1nn2c(C3CCNCC3)cc(=O)[nH]c2c1-c1nc(-c2ccc(C(F)(F)F)cc2)no1 [Example 442, 2-methyl-7-(piperidin-4-yl)-3-{3-[4-(trifluoromethyl)phenyl]-1,2,4-oxadiazol-5-yl}pyrazolo[1,5-a]pyrimidin-5(4H)-one hydrochloride] | 27 nM
O=c1cc(C2CCNCC2)n2ncc(-c3nnc(-c4cccc(C(F)(F)F)c4)o3)c2[nH]1 [Example 175, 7-(piperidin-4-yl)-3-{5-[3-(trifluoromethyl)phenyl]-1,3,4-oxadiazol-2-yl}pyrazolo[1,5-a]pyrimidin-5(4H)-one hydrochloride] | 35 nM
O=c1cc(C2CCNCC2)n2ncc(-c3coc(-c4ccccc4)n3)c2[nH]1 [Example 372, 3-(2-phenyl-1,3-oxazol-4-yl)-7-(piperidin-4-yl)pyrazolo[1,5-a]pyrimidin-5(4H)-one hydrochloride] | 22 nM

Same assay, conditions: human citrated platelet-poor plasma 5%, fibrinogen 3 μM, CaCl2 10 mM, tPA 0.2 nM, 37° C., OD at 405 nm; hydrochloride

Structure (SMILES) | IC50
CCc1noc(-c2cnn3c(C4CCNCC4)cc(=O)[nH]c23)n1 [Example 199, 3-(3-ethyl-1,2,4-oxadiazol-5-yl)-7-(piperidin-4-yl)pyrazolo[1,5-a]pyrimidin-5(4H)-one hydrochloride] | 34 nM

From patent US10118930B2, “Piperidinylpyrazolopyrimidinones and their use” (BAYER PHARMA AKTIENGESELLSCHAFT, priority 2015, dated 2018)
